In ChEMBL document CHEMBL1138129, “A novel nicotinic acetylcholine receptor antagonist radioligand for PET studies” (Bioorg Med Chem Lett, 2006):

Experiments:
[1] = biological target: Neuronal acetylcholine receptor; alpha4/beta2 (Homo sapiens, UniProt P17787+P43681); assay: Displacement of [3H]epibatidine from alpha-4-beta-2 ACHR; format: protein-complex assay
[2] = Half life of the compound; format: ADME
[3] = Lipophilicity as measured by Log P; format: physicochemical; details: octanol/water
[4] = Protein binding in baboon plasma; format: ADME, Papio; details: read-out: PPB (converted)

Chain of Neuronal acetylcholine receptor; alpha4/beta2 (P17787 whole entry): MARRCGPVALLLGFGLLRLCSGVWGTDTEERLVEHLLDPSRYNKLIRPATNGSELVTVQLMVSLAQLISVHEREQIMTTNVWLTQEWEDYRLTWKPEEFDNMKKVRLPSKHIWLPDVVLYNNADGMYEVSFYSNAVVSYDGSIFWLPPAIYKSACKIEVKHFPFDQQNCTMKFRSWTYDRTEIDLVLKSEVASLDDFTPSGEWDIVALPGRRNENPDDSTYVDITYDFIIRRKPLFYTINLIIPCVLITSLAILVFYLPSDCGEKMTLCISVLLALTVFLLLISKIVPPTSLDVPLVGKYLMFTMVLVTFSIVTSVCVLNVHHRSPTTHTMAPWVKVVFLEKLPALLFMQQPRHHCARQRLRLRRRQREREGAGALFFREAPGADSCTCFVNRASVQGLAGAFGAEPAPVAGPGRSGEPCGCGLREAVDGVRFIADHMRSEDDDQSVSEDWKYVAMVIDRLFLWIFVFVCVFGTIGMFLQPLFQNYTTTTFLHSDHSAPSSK
Chain of Neuronal acetylcholine receptor; alpha4/beta2 (P43681 whole entry): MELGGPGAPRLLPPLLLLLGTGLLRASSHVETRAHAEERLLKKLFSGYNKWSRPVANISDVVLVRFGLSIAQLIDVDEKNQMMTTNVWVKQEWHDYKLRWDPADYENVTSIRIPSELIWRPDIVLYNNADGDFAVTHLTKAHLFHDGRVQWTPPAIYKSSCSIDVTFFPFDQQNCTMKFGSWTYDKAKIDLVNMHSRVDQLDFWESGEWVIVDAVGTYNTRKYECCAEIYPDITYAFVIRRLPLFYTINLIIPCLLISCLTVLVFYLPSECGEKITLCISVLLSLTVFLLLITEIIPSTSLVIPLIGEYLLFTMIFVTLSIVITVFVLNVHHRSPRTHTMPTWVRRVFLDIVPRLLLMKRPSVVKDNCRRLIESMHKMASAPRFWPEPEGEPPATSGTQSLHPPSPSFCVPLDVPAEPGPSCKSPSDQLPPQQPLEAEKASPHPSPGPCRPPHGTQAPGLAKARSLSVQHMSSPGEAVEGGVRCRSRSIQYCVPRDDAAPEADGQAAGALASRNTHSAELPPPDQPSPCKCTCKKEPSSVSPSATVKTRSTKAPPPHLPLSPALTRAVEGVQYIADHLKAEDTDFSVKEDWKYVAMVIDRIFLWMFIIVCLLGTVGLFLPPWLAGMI

`[11CH3]N1C2CCC1C(c1cncc(I)c1)C2` (centres undefined) gave a Ki [1] of 29 nM, a half-life [2] of 1 h and a logP [3] of 1.09. The fraction unbound [4] was 0.6.
